Active and inactive are the calls of the source.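 The calls were made as follows: active = IC50 below 100 µM in the TR-FRET assay, unless also active in the caspase-3 counter assay; inactive = the rest, including compounds also active in caspase-3.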 Bounds are passed on as bounds.

In the assay the target is Caspase-3 (Homo sapiens) (UniProt P42574). In words: caspase-3 inhibitors as false-positive filter, SAR follow-up, counter-screen for UBC13 polyubiquitin inhibitor project, biochemical, luminescence, Caspase-Glo 3/7, set 3 (AID 602207). Particulars: recombinant caspase-3, Caspase-Glo luminescence, 60 min. On the technique in general: Counterscreens check selectivity or assay interference.
Sequence of Caspase-3 (Homo sapiens) (P42574 whole entry, looked up): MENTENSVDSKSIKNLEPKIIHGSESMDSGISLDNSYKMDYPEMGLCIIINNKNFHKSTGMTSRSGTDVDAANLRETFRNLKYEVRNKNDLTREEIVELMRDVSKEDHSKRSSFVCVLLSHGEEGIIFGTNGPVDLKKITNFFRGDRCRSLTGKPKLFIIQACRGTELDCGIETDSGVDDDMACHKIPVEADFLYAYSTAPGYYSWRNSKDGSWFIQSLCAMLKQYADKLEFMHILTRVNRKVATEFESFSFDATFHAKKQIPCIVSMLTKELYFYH
For `Cc1cc(Cl)ccc1NC(=O)C1CCN(c2ncnc3c2nc2n3CCCCC2)CC1`, the IC50 is > 100 µM (inactive). The figure for `CCOc1ccc(CCNC(=O)CCCCCN2C(=O)c3ccccc3C2=O)cc1OCC` is > 100 µM (inactive); for `COc1ccc(NC(=O)C2CCN(c3ncnc4c3nc3n4CCCCC3)CC2)cc1Cl` it is > 100 µM (inactive); for `O=C(Nc1cccc(Cl)c1)C1CCN(c2ncnc3c2nc2n3CCCCC2)CC1` it is > 100 µM (inactive). Take `O=C(CCCCCN1C(=O)c2ccccc2C1=O)NCCc1ccccc1`: the IC50 was > 100 µM (inactive).

As to `Cc1ccc(NC(=O)C2CCN(c3ncnc4c3nc3n4CCCCC3)CC2)c(Cl)c1`, the IC50 was > 100 µM (inactive). With `Cc1c(Cl)cccc1NC(=O)C1CCN(c2ncnc3c2nc2n3CCCCC2)CC1`, the IC50 was > 100 µM (inactive). With `Fc1ccccc1N1CCN(c2ncnc3c2nc2n3CCCC2)CC1`, the IC50 is > 100 µM (inactive).

Consider `c1ccc(CN2CCN(c3ncnc4c3nc3n4CCCC3)CC2)cc1`, for which the IC50 was > 100 µM (inactive). Take `O=C(Nc1cc(F)ccc1F)C1CCN(c2ncnc3c2nc2n3CCCCC2)CC1`: the IC50 is > 100 µM (inactive). As for `CC1CN(S(=O)(=O)c2ccc(NC(=O)CCCCCN3C(=O)c4ccccc4C3=O)cc2)CC(C)O1` (centres undefined), the figure is > 100 µM (inactive); as for `Cc1ccc(Cl)cc1N1CCN(c2ncnc3c2nc2n3CCCC2)CC1`, > 100 µM (inactive). The figure for `O=C(Nc1ccc(CN2CCCCC2)cc1)C1CCN(c2ncnc3c2nc2n3CCCCC2)CC1` is > 100 µM (inactive). As for `Cc1ccc(NC(=O)C2CCN(c3ncnc4c3nc3n4CCCCC3)CC2)cc1F`, the figure is > 100 µM (inactive); as for `Cc1ccc(NC(=O)C2CCN(c3ncnc4c3nc3n4CCCCC3)CC2)cc1C`, > 100 µM (inactive); as for `COc1cc(Cl)c(C)cc1NC(=O)C1CCN(c2ncnc3c2nc2n3CCCCC2)CC1`, > 100 µM (inactive). `c1nc(N2CCC(N3CCCCC3)CC2)c2nc3n(c2n1)CCCC3`: the IC50 is > 100 µM (inactive). As for `COc1cc(OC)c(NC(=O)C2CCN(c3ncnc4c3nc3n4CCCCC3)CC2)cc1Cl`, the figure is > 100 µM (inactive); as for `COc1ccc(Cl)cc1NC(=O)C1CCN(c2ncnc3c2nc2n3CCCCC2)CC1`, > 100 µM (inactive).

The term IC50 denotes the concentration needed to halve the response being measured.

The record behind these values is PubChem BioAssay AID602207 (Sanford-Burnham Center for Chemical Genomics, 2012).
